Assay: Warming compositions evaluated by a trained sensory panel (intensity scale 0 to 5)
Conditions: flavone glycoside 1 ppm combined with capsicum oleoresin 2 ppm; for Enhancement of the warming effect of capsicum oleoresin: versus capsicum oleoresin 2 ppm alone; for Flavor Intensity: scale 0 to 5 (0=none, 1=minimal, 3=moderate, 5=intense)

SMILES	Enhancement of the warming effect of capsicum oleoresin	Flavor Intensity
O=c1cc(-c2ccc(O)cc2)oc2cc(OC3OC(CO)C(O)C(O)C3O)cc(O)c12 (centres unmarked) [Formula II, apigenin 7-O-glucoside]	enhanced	2.5
COc1ccc(-c2cc(=O)c3c(O)cc(OC4OC(CO)C(O)C(O)C4O)cc3o2)cc1 (centres unmarked) [Formula III, acacetin 7-O-glucoside]	enhanced	2.5
CC1OC(OCC2OC(Oc3cc(O)c4c(=O)cc(-c5ccc(O)c(O)c5)oc4c3)C(O)C(O)C2O)C(O)C(O)C1O (centres unmarked) [Formula IV, luteolin 7-O-rutinoside]	enhanced	2.5
COc1ccc(-c2cc(=O)c3c(O)cc(OC4OC(COC5OC(C)C(O)C(O)C5O)C(O)C(O)C4O)cc3o2)cc1 (centres unmarked) [Formula V, acacetin 7-O-rutinoside]	enhanced	3.5

From patent publication US20120251465A1, “FLAVOR COMPOSITION CONTAINING FLAVONE GLYCOSIDES” (priority 2011, published 2012)
